Reference: PMC9551036, “A selective and orally bioavailable VHL-recruiting PROTAC achieves SMARCA2 degradation in vivo” (Nature Communications, 2022)
Where “and” joins values, the source holds several entries; their conditions need not be identical. Equal entries are not always repeated. Where two headings read alike, the source gives them in different places.

What was measured:
[1] = Plasma protein binding; format: in vitro ADME
Procedure: Binding of compound to plasma proteins was determined by equilibrium dialysis of 3 µmol/L compound in plasma (or plasma dilutions in PBS) against PBS through an 8 kDa molecular-weight cut-off cellulose membrane (RED device, Thermo Fisher) at 37 °C for 5 h. After incubation, aliquots from donor and acceptor compartments were precipitated and the concentrations in the supernatants were determined by quantitative LC-MS/MS. Calibration and quality control samples were prepared using blank plasma and internal standard. The fraction unbound was calculated as ratio of the compound concentration in the acceptor compartment to the concentration in the donor compartment.

[2] = Bidirectional permeability measurement in Caco-2 cells; format: in vitro ADME; settings: human
In short: (§1)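 Compound quantified by LC-MS/MS in samples taken over up to 2 h across 14–21-day Caco-2 monolayers, after 24 h preincubation with 1 µM compound. Runs done without and with 5 µM zosuquidar to probe P-gp. Efflux ratio is the quotient of duplicate-mean Papp,BA over Papp,AB.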

[3] = test system: P-gp; experiment: as above; format: in vitro ADME; settings: human, Caco-2, pH 7.4, with zosuquidar 5 µM, Modified Caco-2, b to a, + PGPi (Zosuquidar); read-out: Modified Caco-2 Pba + PGPi (Zosuquidar)
In short: as §1

[4] = biological target: SMARCA2 (Homo sapiens, UniProt P51531); experiment: SMARCA2 capillary electrophoresis protein assay in other cell lines (A549, NCI-H1568, HCT116, LU99, HCC-364, HCT-15, HCC4006, SK-N-AS); format: cell-based; design: endogenous in cells; host or cells: RKO, NCI-H1568, A549, HCT116, LU99, HCC-364, HCT-15, HCC4006, SK-N-AS
Procedure: 130,000–200,000 cells were seeded in 24-well plates and incubated until settled down or overnight. Compounds were dissolved in DMSO and added to cells in indicated concentrations using a digital dispenser following an optional media change. Cells were incubated for 4 or 18 h as indicated. For SMARCA2/4 half-life determination, 150,000 or 200,000 cells were seeded in 24-well plates. The next day, 50 µg/ml cycloheximide (Sigma) was added and cells were incubated for 1–24 h. For SMARCA2/4 re-synthesis measurements, 200,000 cells were seeded in 24-well plates. The next day, 100 nM compound 6 was added for 4 h to degrade SMARCA2/4, and a sample was taken as baseline for normalisation. To allow re-synthesis, a VHL binder (compound 32, 25 or 50 µM) was then added for 3 or 24 h. Medium was removed, cells were washed with PBS and lysed with 80 µl Lysis Buffer (MSD Tris Lysis Buffer (#R60TX-2) + Halt Inhibitor Cocktail (100x) + Benzonase 0.5 µL/ml). Samples were frozen at −80 °C and thawed at room temperature before use. Samples were transferred to a V-bottom plate and insoluble debris was pelleted by centrifugation for 5 min at maximum speed. The supernatant was transferred to a fresh plate. Master Mix and Ladder were prepared according to manufacturer’s instructions for 12–230 kDa Wes Separation Module, 8 × 25 capillary cartridges, Protein Simple #SM-W004 with Anti-Rabbit Detection Module for Wes, Peggy Sue or Sally Sue, Protein Simple #DM-001. 4.8 µl lysate were mixed with 1.2 µl Master Mix to achieve a protein concentration of ~0.5 µg/µl. Antibodies were diluted in Antibody Diluent II (SMARCA2 Sigma #HPA029981 RRID:AB_10602406 1:25–100, SMARCA4 Cell Signalling #49360 clone D1Q7F RRID:AB_2728743 1:15–120 or Abcam #ab110641 clone EPNCIR111A RRID:AB_10861578 1:60, GAPDH Abcam #ab9485 RRID:AB_307275 1:250). Wes plates were prepared and run according to manufacturer’s instructions. Proteins were quantified with accompanying Compass Software. SMARCA2/4 protein levels were normalised to GAPDH. […] Where applicable, curves were fitted using a 4-parametric logistic model.

SMARCA2, sequence (P51531 whole entry): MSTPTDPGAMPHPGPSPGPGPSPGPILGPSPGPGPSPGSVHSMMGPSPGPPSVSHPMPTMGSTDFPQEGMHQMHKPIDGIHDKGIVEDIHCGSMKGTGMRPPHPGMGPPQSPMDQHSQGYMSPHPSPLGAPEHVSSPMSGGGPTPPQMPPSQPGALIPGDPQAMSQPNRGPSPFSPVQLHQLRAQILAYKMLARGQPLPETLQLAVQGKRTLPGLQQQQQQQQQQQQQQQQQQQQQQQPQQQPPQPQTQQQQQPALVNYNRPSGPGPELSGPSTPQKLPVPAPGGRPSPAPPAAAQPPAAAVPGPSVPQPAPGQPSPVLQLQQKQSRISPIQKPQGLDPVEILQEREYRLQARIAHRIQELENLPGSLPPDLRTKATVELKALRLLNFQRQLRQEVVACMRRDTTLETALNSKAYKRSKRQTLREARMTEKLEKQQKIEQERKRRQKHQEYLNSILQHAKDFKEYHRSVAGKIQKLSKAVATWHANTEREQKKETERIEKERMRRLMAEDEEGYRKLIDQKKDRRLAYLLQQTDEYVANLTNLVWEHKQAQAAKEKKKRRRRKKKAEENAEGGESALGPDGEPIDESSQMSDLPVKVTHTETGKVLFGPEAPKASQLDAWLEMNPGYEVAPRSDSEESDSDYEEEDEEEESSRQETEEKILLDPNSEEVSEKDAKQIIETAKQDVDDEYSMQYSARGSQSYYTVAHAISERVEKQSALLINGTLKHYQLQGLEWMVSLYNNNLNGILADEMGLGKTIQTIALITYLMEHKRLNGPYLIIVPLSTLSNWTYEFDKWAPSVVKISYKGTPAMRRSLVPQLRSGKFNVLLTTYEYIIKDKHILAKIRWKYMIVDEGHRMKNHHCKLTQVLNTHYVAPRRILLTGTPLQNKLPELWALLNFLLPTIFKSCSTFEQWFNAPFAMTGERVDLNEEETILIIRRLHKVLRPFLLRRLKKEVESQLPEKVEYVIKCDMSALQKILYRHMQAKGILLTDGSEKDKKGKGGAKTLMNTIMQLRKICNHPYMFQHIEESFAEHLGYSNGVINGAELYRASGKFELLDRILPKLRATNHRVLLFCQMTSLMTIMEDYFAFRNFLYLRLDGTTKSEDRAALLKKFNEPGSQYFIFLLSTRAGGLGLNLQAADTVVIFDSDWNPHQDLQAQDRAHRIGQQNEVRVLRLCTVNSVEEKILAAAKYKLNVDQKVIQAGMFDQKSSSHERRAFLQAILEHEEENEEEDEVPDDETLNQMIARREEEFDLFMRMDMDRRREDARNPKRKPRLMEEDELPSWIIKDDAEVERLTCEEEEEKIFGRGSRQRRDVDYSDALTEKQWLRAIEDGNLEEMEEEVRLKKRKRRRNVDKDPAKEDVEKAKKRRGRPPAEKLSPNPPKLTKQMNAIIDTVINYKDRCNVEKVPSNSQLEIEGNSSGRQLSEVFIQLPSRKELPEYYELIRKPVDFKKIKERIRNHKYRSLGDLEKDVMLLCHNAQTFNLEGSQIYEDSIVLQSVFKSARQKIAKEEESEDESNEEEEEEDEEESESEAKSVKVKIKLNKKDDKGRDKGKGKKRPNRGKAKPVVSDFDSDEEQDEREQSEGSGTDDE

## Cc1ncsc1-c1ccc([C@H](CCCCCN2CCC(c3ccc4c(c3)n(C3CCCC3)c3nc(=O)c5c(Br)cccc5n43)CC2)NC(=O)[C@@H]2C[C@@H](O)CN2C(=O)[C@@H](NC(=O)C2(F)CC2)C(C)(C)C)cc1 [compound 11]
[1]; 10% calf
  PPB fu 10% Calf: 0.136%
[1]; 10% human
  PPB fu 10% Human: < 0.043% and < 0.038%
[1]; 10% mouse
  PPB fu 10% Mouse: < 0.038% and < 0.228% and 1.281%
[1]; 10% rat
  PPB fu 10% Rat: < 0.044% and < 0.048%
[1]; bovine, 10% calf plasma dilution in PBS, 10% calf, fraction unbound, read-out: PPB fu 10% Calf
  fraction unbound at 5 h, 3 µmol/L: 0.0014
[1]; bovine, 10% plasma (plasma dilution in PBS), 10% calf, read-out: PPB fu 10% Calf
  fraction unbound at 5 h, 3 µmol/L: < 0.00092
[1]; human, 10% plasma (plasma dilution in PBS), 10% human, read-out: PPB fu 10% Human
  fraction unbound at 5 h, 3 µmol/L: < 0.00049
[1]; human, plasma, human, fraction unbound, read-out: PPB fu Human
  fraction unbound at 5 h, 3 µmol/L: < 0.0004
[1]; mouse, plasma, mouse, fraction unbound, read-out: PPB fu Mouse
  fraction unbound at 5 h, 3 µmol/L: < 0.0004
[1]; rat, 10% plasma (plasma dilution in PBS), 10% rat, read-out: PPB fu 10% Rat
  fraction unbound at 5 h, 3 µmol/L: < 0.00047
[1]; rat, plasma, rat, fraction unbound, read-out: PPB fu Rat
  fraction unbound at 5 h, 3 µmol/L: < 0.0004
[2]; Caco-2, pH 7.4, Caco-2, read-out: Caco-2 Pab
  Papp A→B at 1 µM: 1.4 ± 0.5 ×10⁻⁶ cm/s
[2]; Caco-2, pH 7.4, Modified Caco-2, read-out: Modified Caco-2 Pab
  Papp A→B at 1 µM: 6 ± 3 ×10⁻⁶ cm/s
[3]
  Papp B→A at 2 h, 1 µM: 24 ×10⁻⁶ cm/s
[4]; NCI-H1568 (4 h), mean ± SD
  Dmax: 90 ± 0.3%
[4]; NCI-H1568 (4 h), mean ± SD, read-out: SMARCA2 DC50
  DC50: 8 ± 4 nM
[4]; NCI-H1568, 4h, individual replicates, read-out: NCI-H1568 (4h) SMARCA2 DC50
  DC50: 5.2 nM and 13 nM and 6.7 nM
